Data published in article PMC6632015, “Niosomal Nanocarriers for Enhanced Skin Delivery of Quercetin with Functions of Anti-Tyrosinase and Antioxidant” (Molecules, 2019).
≈ marks a conversion by molar mass, not a printed value. Each block holds one compound with its values, some of them ahead of it.

Legend:
[1] = DPPH radical scavenging activity; details: DPPH 30 μg/mL, absorbance at 515 nm
Description: The antioxidant activity of flavonoids was measured by the bleaching rate of DPPH, reported by Blois. In its radical form, DPPH absorbs at the wavelength of 515 nm, but its absorption decreases upon reduction by an antioxidant or a radical compound. The DPPH radical scavenging activity of flavonoids was evaluated according to the method described by Rui Yang, with some modifications. Briefly, 5 mL of DPPH (30 μg/mL) was mixed with 0.1 mL of absolute ethyl alcohol and 0.1 mL of samples with different concentrations. Then, the absorbance of the mixtures was determined at 515 nm. The DPPH radical scavenging activity was calculated as follows: (2) DPPH radical scavenging activity = A0−Ai/A0×100% where A0 and Ai denote the absorbance at 515 nm of the control (DPPH mixed with absolute ethyl alcohol) and the test samples (DPPH mixed with flavonoids).

tyrosinase = assay: In vitro tyrosinase inhibition (dopachrome formation at 493 nm, L-tyrosine substrate); type: biochemical; details: for IC50 anti-tyrosinase activity: tyrosinase 120 unites/mL, phosphate buffer pH 6.8, 30 °C, L-tyrosine
Description: The tyrosinase inhibition assay was performed based on a previous study with slight modification. The activity of tyrosinase inhibition was determined using a spectrophotometer by monitoring dopachrome formation at 493 nm. […] After incubation at 30 °C for 10 min, 0.5 mL of L-tyrosine was added to the systems. The reaction systems were incubated at 30 °C for 20 min and absorbance was determined at 493 nm. […] The degree of inhibition of the sample was expressed as 50% inhibition concentration (IC50).
The inhibitory effects of the test samples were expressed as the percentage of tyrosinase inhibition as follows:(1) Tyrosinase inhibition=(A−B)−(C−D)/(A−B)×100% where A and B denote the absorbance at 493 nm of the mixture without the test sample (L-tyrosine mixed with the enzyme in the buffer; the control) and without the test sample or the enzyme (L-tyrosine in the buffer; the blank), respectively; C and D denote those with the test sample and enzyme (L-tyrosine mixed with the enzyme and test sample in the buffer; the reaction mixture) and without the enzyme (L-tyrosine mixed with the test sample in the buffer; the blank version of C).

[2] = Water solubility of quercetin and solubility in niosomes; type: physicochemical
Description: The water solubility of quercetin was measured with 15 mL of purified water, phosphate buffers with different pH values (pH 5.0, 6.0, 6.8, 7.4, 8.0), and excess quercetin, and placed into vials. The vials were shaken for 24 h in a 37 °C water bath and the supernatant was determined by HPLC after centrifugation.

[3] = Ex vivo drug permeation through rat abdominal skin (transdermal diffusion device); type: in vitro ADME; details: 0.6% Tween80 receptor medium, up to 24 h
Description: Rats were sacrificed by cervical dislocation, hair on the abdomen was shaved, and then abdominal skin was separated and placed into physiological saline. Afterward, subcutaneous tissue (muscle, fat, and vascellum) was removed using surgical scissors and hemostatic forceps and then stored at 4 °C with physiological saline for further investigation. […] Then, 0.6% Tween80 solution was selected as the penetration release medium. Skin tissues were placed between the diffusion cell and receptor cell, and 0.4 mL of quercetin preparations (equivalent to 120 μg of quercetin) was applied on the skin. Penetration medium (0.5 mL) was withdrawn from the receptor cell at 1, 2, 4, 6, 8, 10, 12, and 24 h with the replacement of fresh penetration medium (0.5 mL). Penetration mediums withdrawn at different timepoints were diluted to 7 mL with methanol and determined by HPLC after centrifugation and filtration.

[4] = Solubility of quercetin in different release medium; type: physicochemical
Description: An aqueous solutions of 15 mL of Tween80 and SDS at different concentrations and excess quercetin were placed into each of the vials. Vials were shaken in a 32 °C water bath for 24 h. After 24 h, 5 mL suspension was centrifuged at 3000 rmp for 15 min and 0.2 mL of the supernatant was diluted to 2 mL and determined using HPLC.

Compound: O=C(O)[C@H]1O[C@@H](Oc2cc3oc(-c4ccc(O)cc4)cc(=O)c3c(O)c2O)[C@H](O)[C@@H](O)[C@@H]1O [Breviscapine]
EC50 DPPH radical scavenging activity [1]: 368.08 ± 1.04 µg/mL (≈ 796 µM) | anti-tyrosinase activity (in words) (tyrosinase): no promising anti-tyrosinase activity | IC50 anti-tyrosinase activity (tyrosinase): >1000 µg/mL

EC50 DPPH radical scavenging activity [1]: 358.15 ± 1.43 µg/mL (≈ 1630 µM)
Compound: Cc1cc(C(C)(C)C)c(O)c(C(C)(C)C)c1 [Butylated hydroxytoluene (BHT), Butylated hydroxytoluene, reference compound]

EC50 DPPH radical scavenging activity [1]: 83.19 ± 0.33 µg/mL (≈ 291 µM) | IC50 anti-tyrosinase activity (tyrosinase): 23.10 ± 0.32 µg/mL (≈ 80.7 µM)
Compound: O=c1c(O)c(-c2ccc(O)c(O)c2)oc2cc(O)ccc12 [Festin]

EC50 DPPH radical scavenging activity [1]: 123.06 ± 0.48 µg/mL (≈ 407 µM) | IC50 anti-tyrosinase activity (tyrosinase): 4.26 ± 0.47 µg/mL (≈ 14.1 µM)
Compound: O=c1c(O)c(-c2ccc(O)cc2O)oc2cc(O)cc(O)c12 [Morin]

EC50 DPPH radical scavenging activity [1]: 118.63 ± 0.57 µg/mL (≈ 373 µM) | anti-tyrosinase activity (in words) (tyrosinase): no the anti-tyrosinase activity
Compound: O=c1c(O)c(-c2cc(O)c(O)c(O)c2)oc2cc(O)cc(O)c12 [Myricetin]

Compound: O=c1c(O)c(-c2ccc(O)c(O)c2)oc2cc(O)cc(O)c12 [Quercetin]
EC50 DPPH radical scavenging activity [1]: 80.75 ± 0.26 µg/mL (≈ 267 µM) | solubility in niosomes, fold higher than in water [2]: 1247 fold | solubility at 24 h ([2]; 37 °C, water, thermodynamic from solid): 0.21 ± 0.14 µg/mL (≈ 0.695 µM) | Solubility ([2]; medium: niosomes, from 300 μg/mL loaded and entrapment 87.3 ± 1.6%): 261.9 ± 4.8 µg/mL (≈ 867 µM) | IC50 anti-tyrosinase activity (tyrosinase): 1.59 ± 0.38 µg/mL (≈ 5.26 µM) | quercetin in the penetration release medium (ex vivo penetration) [3]: could not be determined | Solubility in Tween80 Aqueous Solution ([4]; 0.1% Tween80, 32 °C, 24 h): 12.19 ± 1.05 µg/mL (≈ 40.3 µM) | solubility at 24 h ([4]; 0.2% SDS aqueous solution, 0.2% SDS, 32 °C, 24 h, read-out: Solubility in SDS Aqueous Solution): 4.58 ± 0.04 µg/mL (≈ 15.2 µM) | solubility at 24 h ([4]; 0.2% Tween80 aqueous solution, 32 °C, aqueous with cosolvent or surfactant or cyclodextrin, thermodynamic from solid, 0.2% Tween80, 32 °C, 24 h, read-out: Solubility in Tween80 Aqueous Solution): 24.7 ± 2.15 µg/mL (≈ 81.8 µM) | solubility at 24 h ([4]; 0.3% Tween80 aqueous solution, 0.3% Tween80, 32 °C, 24 h, read-out: Solubility in Tween80 Aqueous Solution): 31.4 ± 0.73 µg/mL (≈ 104 µM) | Solubility in SDS Aqueous Solution ([4]; 0.4% SDS, 32 °C, 24 h): 4.22 ± 0.43 µg/mL (≈ 14 µM) | solubility at 24 h ([4]; 0.4% Tween80 aqueous solution, 0.4% Tween80, 32 °C, 24 h, read-out: Solubility in Tween80 Aqueous Solution): 41.34 ± 0.19 µg/mL (≈ 137 µM) | solubility at 24 h ([4]; 0.6% SDS aqueous solution, 32 °C, aqueous with cosolvent or surfactant or cyclodextrin, thermodynamic from solid, 0.6% SDS, 32 °C, 24 h, read-out: Solubility in SDS Aqueous Solution): 6.48 ± 0.44 µg/mL (≈ 21.4 µM) | solubility at 24 h ([4]; 0.6% Tween80 aqueous solution, 0.6% Tween80, 32 °C, 24 h, read-out: Solubility in Tween80 Aqueous Solution): 56.4 ± 1.42 µg/mL (≈ 186 µM) | Solubility in pH-0.8%Tween80 Aqueous Solution ([4]; 0.8% Tween80, pH 5.0): 79.49 ± 0.41 μg/mL | solubility at 24 h ([4]; 0.8% Tween80 aqueous solution, 32 °C, aqueous with cosolvent or surfactant or cyclodextrin, thermodynamic from solid, 0.8% Tween80, 32 °C, 24 h, read-out: Solubility in Tween80 Aqueous Solution): 76.1 ± 3.11 µg/mL (≈ 252 µM) | solubility at 24 h ([4]; 0.8% Tween80 aqueous solution, 32 °C, pH 5, aqueous with cosolvent or surfactant or cyclodextrin, thermodynamic from solid, 0.8% Tween80, pH 5.0, read-out: Solubility in pH-0.8%Tween80 Aqueous Solution): 76.1 ± 3.11 µg/mL (≈ 252 µM) | solubility at 24 h ([4]; 0.8% Tween80 aqueous solution, 32 °C, pH 6.8, aqueous with cosolvent or surfactant or cyclodextrin, thermodynamic from solid, 0.8% Tween80, pH 6.8, read-out: Solubility in pH-0.8%Tween80 Aqueous Solution): 52.4 ± 0.71 µg/mL (≈ 173 µM) | solubility at 24 h ([4]; 0.8% Tween80 aqueous solution, pH 7.4, 0.8% Tween80, pH 7.4, read-out: Solubility in pH-0.8%Tween80 Aqueous Solution): 55 ± 6.6 µg/mL (≈ 182 µM)

EC50 DPPH radical scavenging activity [1]: 188.28 ± 0.68 µg/mL (≈ 308 µM) | anti-tyrosinase activity (in words) (tyrosinase): no promising anti-tyrosinase activity | IC50 anti-tyrosinase activity (tyrosinase): >1000 µg/mL
Compound: C[C@@H]1O[C@@H](OC[C@H]2O[C@@H](Oc3c(-c4ccc(O)c(O)c4)oc4cc(O)cc(O)c4c3=O)[C@H](O)[C@@H](O)[C@@H]2O)[C@H](O)[C@H](O)[C@H]1O [Rutin]
